In ChEMBL document CHEMBL1156829 (Proc Natl Acad Sci U S A, 2008):

Tests used:
[1] = system: Plasmodium falciparum; experiment: NOVARTIS: Inhibition of Plasmodium falciparum 3D7 (drug-susceptible) proliferation in erythrocyte-based infection assay; assay type: functional, organism-based; details: Plasmodium falciparum, 3D7
[2] = system: Plasmodium falciparum; experiment: NOVARTIS: Inhibition of Plasmodium falciparum W2 (drug-resistant) proliferation in erythrocyte-based infection assay; assay type: functional, organism-based; details: Plasmodium falciparum, W2; read-out: EC50
[3] = NOVARTIS: Cytotoxicity against human hepatocellular carcinoma cell line (Huh7); assay type: toxicity, cell-based, Huh-7; details: Huh7 cells (hepatocellular carcinoma cell line)

Row | SMILES | EC50 [1] [nM] | EC50 [2] [nM] | CC50 [3] [nM]
1 | COc1ccc(/C=C2/SC(=Nc3ccccc3)NC2=O)cc1 | 292 | 332 | > 100000
2 | CCOC(=O)c1c(CSc2ccccc2)oc2cc(CN(C)C)c(O)c(Cl)c12 | 321 | 210 | 61600
3 | O=C(c1cccc(Cl)c1)N1CCN(c2ccc([N+](=O)[O-])c(NC3CC3)c2)CC1 | 552 | 340 | > 100000
4 | CCCc1c(C(=O)OCC)c2cc(O)ccc2n1-c1ccc(OC)cc1 | 133 | 339 | > 100000
5 | O=C(Cc1ccccc1)NC(c1ccc(Cl)cc1)c1ccc2cccnc2c1O (configuration not stated) | 209 | 337 | > 100000
6 | COc1ccc(C2C(C(=O)Nc3cc(Cl)c(OC)cc3OC)c3ccccc3C(=O)N2C)cc1 (configuration not stated) | 378 | 333 | > 100000
7 | CCc1c(C)c(C#N)c2nc3ccccc3n2c1NCc1ccco1 | 271 | 333 | > 100000
8 | CN1CCc2c(sc3nc(SCc4ccc(F)cc4)n(-c4ccccc4)c(=O)c23)C1 | 498 | 320 | > 100000
9 | O=C(NCc1nnc(SCC2CCCO2)n1Cc1ccccc1)c1cccc2ccccc12 (configuration not stated) | 1870 | < 26.5 | 8280
10 | CCOC(=O)c1c(CC)nc(-c2ccccc2)nc1C(=O)N1CCC(C)CC1 | > 1250 | < 13 | 4060
11 | Cc1nc(N2CCCCC2)c2c(C)c(C(=O)N3CCN(c4cccc(Cl)c4)CC3)sc2n1 | > 12500 | 319 | > 100000
12 | CCC(=O)N(C)CCCNc1ccnc2cc(Cl)ccc12 | 467 | 341 | > 100000
13 | CCc1ccc(NC(=O)c2ccc(F)c(S(=O)(=O)NC3CCCC(C)C3C)c2)cc1 (configuration not stated) | 1350 | 216 | 66000
14 | CC1(CNCc2ccccc2O)C2CC3CC(C2)CC1C3 (configuration not stated) | 143 | 32.6 | > 10000
15 | Cc1nc(NN=Cc2c(O)ccc3ccccc23)cc(N2CCCCC2)n1 | 609 | 339 | > 100000
16 | O=C(Nc1ccc(Cl)cc1)c1c2c(nc3ccccc13)-c1ccccc1CC2 | 410 | 338 | > 100000
17 | CCCCN(C(=O)Nc1c(C(C)C)cccc1C(C)C)C(CC)c1nc2ccccc2c(=O)n1-c1cccc(Cl)c1 (configuration not stated) | > 1250 | < 21.2 | > 6290
18 | COc1cc(OC)c(NC(=O)C2c3ccccc3C(=O)N(C)C2c2ccc(OC)c(OC)c2)cc1Cl (configuration not stated) | 983 | 328 | > 100000
19 | COc1cc(C=C(C#N)c2nc3ccccc3[nH]2)ccc1OCc1ccc(C)cc1 | 684 | 328 | > 100000
20 | O=C1C(NC2CCCC2)=C(N2CCCCC2)C(=O)c2ccccc21 | 22.4 | 34.2 | 10100
21 | COc1cc(OC)c(Br)c(-n2c(C(C)N(CCC(C)C)C(=O)c3ccccc3C)nc3ccccc3c2=O)c1 (configuration not stated) | > 1250 | < 33.7 | > 10000
22 | COc1cc(CNc2ccc(N3CCCCC3)cc2)ccc1OCc1ccccc1F | 475 | 335 | > 100000
23 | COc1ccc(C2C(C(=O)Nc3cccc(OC)c3)c3ccccc3C(=O)N2C2CCCCC2)cc1 (configuration not stated) | 1110 | 332 | > 100000
24 | COc1cccc(C(=O)Oc2ccccc2-c2nc3ccccn3c2NC(C)(C)CC(C)(C)C)c1 | 270 | 33 | > 10000
25 | N#Cc1ccc(N2CCCN(C(=S)NC3CCCC3)CC2)nc1 | 650 | 330 | > 100000
26 | CCOC(=O)C1=CN(c2cc(C)ccc2C)C=C(C(=O)OCC)C1c1ccccc1OCC | 264 | 328 | > 100000
27 | CN(C)CCNCc1cc(-c2ccnc3cc(Cl)ccc23)ccc1O | 120 | 152 | 45600

Row | SMILES | EC50 [1] [nM] | EC50 [2] [nM] | CC50 [3] [nM]
28 | COC(=O)C1=C(C)NC2=C(C(=O)CC(c3ccccc3)C2)C1c1ccc(Cl)cc1 (configuration not stated) | 1220 | 333 | > 100000
29 | Cc1onc(-c2ccccc2Cl)c1C(=O)Nc1cc(Cl)ccc1Cl | 369 | 330 | > 100000
30 | Cc1ccc(NC(=O)c2ccc(NCCCN3CCC(C)CC3)c([N+](=O)[O-])c2)cc1F | 191 | 330 | > 100000
31 | COc1cc(OC)c(N(C)C(=O)c2cc3c(s2)-c2ccccc2S(=O)(=O)C3)cc1Cl | 113 | 179 | > 55600
32 | CCOc1ccc(C(=O)N2CCN(Cc3ccccc3)CC2)cc1 | > 3670 | 322 | > 100000
33 | CCCC(=O)NC(c1cccc([N+](=O)[O-])c1)c1ccc2cccnc2c1O (configuration not stated) | 320 | 125 | 38800
34 | CCCn1c(SCCNC(=O)/C=C/c2ccccc2)nc(-c2ccccc2)c1-c1ccccc1 | 557 | 29.7 | 9380
35 | O=C(CSc1nc2cc3c(cc2c(=O)n1Cc1ccco1)OCO3)Nc1cc(C(F)(F)F)ccc1Cl | 247 | 326 | > 100000
36 | COc1cccc(CNC(=O)[C@@H]2CNC[C@H]2c2ccc(C(F)(F)F)cc2)c1 | 108 | 77.5 | 23800
37 | COc1ccc2c(Cl)c(C(=O)Nc3cc(C)on3)sc2c1Cl | 430 | 316 | > 100000
38 | O=C(NNc1ccccc1F)c1c(F)cccc1Cl | > 1250 | < 31.6 | > 10000
39 | O=C(CC1OC(=O)c2ccccc21)c1ccc(Cl)cc1 (configuration not stated) | 717 | 342 | > 100000
40 | CCOC(=O)c1cn(CC)c2cc(N3CCCCC3)c(F)cc2c1=O | 166 | 336 | > 100000
41 | Cc1ccn2c(NC(C)(C)CC(C)(C)C)c(-c3ccccc3OC(=O)c3ccco3)nc2c1 | 828 | 34.1 | > 10000
42 | CC(C)(C)CC(C)(C)Nc1c(-c2ccccc2OC(=O)/C=C/c2ccccc2)nc2ccccn12 | 457 | 34 | > 10000
43 | COc1ccccc1C1CC(=O)N2CN(Cc3ccccc3)CSC2=C1C#N (configuration not stated) | 599 | 337 | > 100000
44 | COc1ccc(C2=CC(=Cc3cccc(OC)c3OC)C(=O)O2)cc1OC | 4760 | 332 | > 100000
45 | O=C(NC1CC1)C1CCN(c2cccc3c2C(=O)N(C2CCCCCCC2)C3=O)CC1 | 203 | 169 | > 51800
46 | COC(=O)C1CCN(C(=O)COC(c2ccccc2)c2cccnc2Cl)CC1 (configuration not stated) | > 1250 | < 7.96 | > 2450
47 | Cc1ccc(C[n+]2cc(-c3ccc(F)cc3)n3c2CCC3)cc1 | 867 | 321 | > 100000
48 | CCOC(=O)C1=C(C)N=c2sc(=Cc3ccccc3OC(C)=O)c(=O)n2C1c1ccc(OC)cc1 (configuration not stated) | 515 | 339 | > 100000
49 | CCOC(=O)C(Cc1ccc(O)cc1)NC1=CC(=O)C(=O)c2ccccc21 (configuration not stated) | 305 | 333 | > 100000
50 | O=C1C(=O)N(Cc2ccccc2[N+](=O)[O-])c2ccccc21 | 710 | 326 | > 100000
51 | CCC(C(=O)Oc1ccccc1-c1nc2ccccn2c1NC(C)(C)CC(C)(C)C)c1ccccc1 (configuration not stated) | 685 | 32.9 | > 10000
52 | COc1ccc(-n2nc([N+](=O)[O-])c(Nc3ccc([N+](=O)[O-])cc3C)[n+]2[O-])cc1 | 1300 | 320 | > 100000
53 | CCCN(CCC)C1=CC(=O)C(C(C)(C)C)=CC1=O | 216 | 171 | 50900
54 | COc1ccc(OC)c(C2CC(=O)C3=C(C2)NC(=O)CC3c2ccc([N+](=O)[O-])cc2)c1 (configuration not stated) | 262 | 229 | 72200
